Experimental findings from PubChem BioAssay AID1259411 (Chemical Carcinogenesis Research Information System (CCRIS), 2018) are described below.

In the data set the test system is rodent carcinogenicity bioassays, tumor incidence. As to the kind of experiment: CCRIS carcinogenicity studies. The method in brief:
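NCI-built, expert-reviewed records of carcinogenicity and related test outcomes (mutagenicity, tumor promotion/inhibition) compiled from published and report sources, historical span 1985-2011, not updated.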

Each structure is given as a SMILES string. Activity calls are given as the source filed them. The rule behind the calls is not given here.

For `CN1[C@@H]2CC(OC(=O)[C@H](CO)c3ccccc3)C[C@H]1[C@@H]1O[C@@H]12` (stereo partly drawn), the carcinogen call by setting is: (Species: MOUSE, Strain/Sex: B6C3F1/FEMALE, Route: GAVAGE, Dose: 0, 1, 5, 25 MG/KG IN DISTILLED WATER FOR 104-105 WK (STUDY DURATION: 105 WK), Dose: 0, 1, 5, 25 MG/KG IN DISTILLED WATER FOR 104-105 WK (STUDY DURATION: 105 WK)) “inactive; negative”; (Species: MOUSE, Strain/Sex: B6C3F1/FEMALE, Route: GAVAGE, Dose: 0, 25 MG/KG IN WATER 5 D/WK FOR 104 WK, CONTROL AND DOSED GROUPS FED AD LIBITUM (STUDY DURATION: 104 WK)) “inactive; negative”; (Species: MOUSE, Strain/Sex: B6C3F1/FEMALE, Route: GAVAGE, Dose: 0, 25 MG/KG IN WATER 5 D/WK FOR 104 WK, CONTROL GROUP DIET RESTRICTED TO LIMIT WEIGHTS TO 85% OF AD LIBITUM-FED GROUP (S) “inactive; negative”; (Species: MOUSE, Strain/Sex: B6C3F1/FEMALE, Route: GAVAGE, Dose: 0, 25 MG/KG IN WATER 5 D/WK FOR 104 WK, CONTROL GROUP WAS WEIGHT-MATCHED TO DOSED GROUP (STUDY DURATION: 104 WK)) “inactive; negative”; (Species: MOUSE, Strain/Sex: B6C3F1/FEMALE, Route: GAVAGE, Dose: 0, 25 MG/KG IN WATER 5 D/WK FOR 157 WK, CONTROL GROUP DIET RESTRICTED TO LIMIT WEIGHTS TO 85% OF AD LIBITUM-FED GROUPS () “inactive; negative”; (Species: MOUSE, Strain/Sex: B6C3F1/MALE, Route: GAVAGE, Dose: 0, 1, 5, 25 MG/KG IN DISTILLED WATER FOR 104-105 WK (STUDY DURATION: 105 WK), Dose: 0, 1, 5, 25 MG/KG IN DISTILLED WATER FOR 104-105 WK (STUDY DURATION: 105 WK)) “inactive; negative”. The carcinogen call runs as follows: (Species: MOUSE, Strain/Sex: B6C3F1/MALE, Route: GAVAGE, Dose: 0, 25 MG/KG IN WATER 5 D/WK FOR 104 WK, CONTROL AND DOSED GROUPS FED AD LIBITUM (STUDY DURATION: 104 WK)) “inactive; negative”; (Species: MOUSE, Strain/Sex: B6C3F1/MALE, Route: GAVAGE, Dose: 0, 25 MG/KG IN WATER 5 D/WK FOR 104 WK, CONTROL GROUP DIET RESTRICTED TO LIMIT WEIGHTS TO 85% OF AD LIBITUM FED GROUP (S) “inactive; negative”; (Species: MOUSE, Strain/Sex: B6C3F1/MALE, Route: GAVAGE, Dose: 0, 25 MG/KG IN WATER 5 D/WK FOR 104 WK, CONTROL GROUP WAS WEIGHT-MATCHED TO DOSED GROUP (STUDY DURATION: 104 WK)) “inactive; negative”; (Species: MOUSE, Strain/Sex: B6C3F1/MALE, Route: GAVAGE, Dose: 0, 25 MG/KG IN WATER 5 D/WK FOR 157 WK, CONTROL GROUP DIET RESTRICTED TO LIMIT WEIGHTS TO 85% OF AD LIBITUM-FED GROUPS () “inactive; negative”; (Species: RAT, Strain/Sex: F344/FEMALE, Route: GAVAGE, Dose: 1, 5, 25 MG/KG IN DISTILLED WATER FOR 104 WK (STUDY DURATION: 104 WK), Dose: 1, 5, 25 MG/KG IN DISTILLED WATER FOR 104 WK (STUDY DURATION: 104 WK)) “inactive; negative”; (Species: RAT, Strain/Sex: F344/MALE, Route: GAVAGE, Dose: 0, 1, 5, 25 MG/KG IN DISTILLED WATER FOR 104 WK (STUDY DURATION: 104 WK), Dose: 0, 1, 5, 25 MG/KG IN DISTILLED WATER FOR 104 WK (STUDY DURATION: 104 WK)) “inactive; negative”.

Take `O=NN1CCCCCCC1`: the carcinogen call was “active; positive” (Species: HAMSTER, Strain/Sex: EUROPEAN/FEMALE, Route: SUBCUTANEOUS, Dose: 11, 22, 44 MG/KG 3/WK, Dose: 11, 22, 44 MG/KG 3/WK, Tumor Site: Type of Lesion: LUNG: ADENOCARCINOMA, SQUAMOUS CELL CARCINOMA, NASAL CAVITY: SQUAMOUS CELL CARCINOMA); “active; positive” (Species: HAMSTER, Strain/Sex: EUROPEAN/MALE, Route: SUBCUTANEOUS, Dose: 16.5, 33, 66 MG/KG 3/WK, Dose: 16.5, 33, 66 MG/KG 3/WK, Tumor Site: Type of Lesion: LUNG: ADENOCARCINOMA, SQUAMOUS CELL CARCINOMA, NASAL CAVITY: SQUAMOUS CELL CARCINOMA); “active; positive” (Species: HAMSTER, Strain/Sex: SYRIAN/MALE, Route: ORAL, Dose: 50, 200 MG/L 5 NIGHT/WK FOR 50 WK IN DRINKING WATER, Tumor Site: Type of Lesion: NASAL CAVITY, LARYNX, PHARYNX, TRACHEA, ESOPHAGUS, FORESTOMACH, Tumor Site: Type of Lesion: NASAL CAVITY, LARYNX, PHARYNX, TRACHEA, ESOPHAGUS, FORESTOMACH); “inactive; negative” (Species: RAT, Strain/Sex: LISTER/FEMALE, Route: SUBCUTANEOUS, Dose: 0, 1 MG 1/WK FOR 10 WK (STUDY DURATION: 104 WK)); “active; positive” (Species: RAT, Strain/Sex: MRC/MALE,FEMALE, Route: ORAL, Dose: 100 MG/L 5 D/WK FOR 30 WK IN DRINKING WATER, Tumor Site: Type of Lesion: ESOPHAGUS, TRACHEA: SQUAMOUS CELL PAPILLOMA, LUNG: SQUAMOUS CELL CARCINOMA, Tumor Site: Type of Lesion: ESOPHAGUS, TRACHEA: SQUAMOUS CELL PAPILLOMA, LUNG: SQUAMOUS CELL CARCINOMA).

`CNC(=O)Oc1cccc2c1OC(C)(C)O2`: the carcinogen call (Species: Mouse, Strain/Sex: CD-1/Female, Route: Oral, Dose: 0, 50, 250, 1250 ppm in diet for 94 wks, Dose: 0, 50, 250, 1250 ppm in diet for 94 wks) was “inactive; negative; purity 92.7%” and the carcinogen call (Species: Mouse, Strain/Sex: CD-1/Male, Route: Oral, Dose: 0, 50, 250, 1250 ppm in diet for 89 wks, Dose: 0, 50, 250, 1250 ppm in diet for 89 wks) is “inactive; negative; purity 92.7%”.

Consider `C=CCc1ccc(O)c(OC)c1`, for which the carcinogen call is “equivocal” (Species: MOUSE, Strain/Sex: B6C3F1/FEMALE, Route: ORAL, Dose: 0, 3000, 6000 PPM IN DIET FOR 103 WK (STUDY DURATION: 103 WK), Dose: 0, 3000, 6000 PPM IN DIET FOR 103 WK (STUDY DURATION: 103 WK), Tumor Site: Type of Lesion: LIVER: HEPATOCELLULAR ADENOMA OR CARCINOMA); “equivocal” (Species: MOUSE, Strain/Sex: B6C3F1/MALE, Route: ORAL, Dose: 0, 3000, 6000 PPM IN DIET FOR 103 WK (STUDY DURATION: 103 WK), Dose: 0, 3000, 6000 PPM IN DIET FOR 103 WK (STUDY DURATION: 103 WK), Tumor Site: Type of Lesion: LIVER: HEPATOCELLULAR ADENOMA, HEPATOCELLULAR CARCINOMA); “inactive; negative” (Species: RAT, Strain/Sex: F344/FEMALE, Route: ORAL, Dose: 0, 6000, 12500 PPM IN DIET FOR 103 WK (STUDY DURATION: 103 WK), Dose: 0, 6000, 12500 PPM IN DIET FOR 103 WK (STUDY DURATION: 103 WK)); “inactive; negative” (Species: RAT, Strain/Sex: F344/MALE, Route: ORAL, Dose: 0, 3000, 6000 PPM IN DIET FOR 103 WK (STUDY DURATION: 103 WK), Dose: 0, 3000, 6000 PPM IN DIET FOR 103 WK (STUDY DURATION: 103 WK)).

As for `O=[N+]([O-])c1cc2cccc3ccc4cccc1c4c32`, the carcinogen call (Species: RAT, Strain/Sex: STRAIN-CD/FEMALE, Route: INJECTION, Dose: 0, 0.1 ML IN 20.3 UMOL/ML DMSO INJECTED INTO MAMMARY TISSUE OF THE 3 LEFT THORACIC NIPPLES FOLLOWED THE NEXT D BY SIMILA, Tumor Site: Type of Lesion: MAMMARY GLAND: FIBROADENOMA, ADENOCARCINOMA) was “active; positive”; the carcinogen call (Species: RAT, Strain/Sex: STRAIN-CD/FEMALE, Route: INJECTION, Dose: 0, 0.1 ML OF A 20.3 UMOL/ML SOLUTION IN DMSO INJECTED INTO MAMMARY TISSUE UNDERLYING 3 LEFT THORACIC NIPPLES THE FOLLOWI, Tumor Site: Type of Lesion: MAMMARY GLAND: FIBROADENOMA) is “active; positive”; the carcinogen call (Species: RAT, Strain/Sex: STRAIN-CD/FEMALE, Route: INTRAPERITONEAL, Dose: 0, 67 UMOL/KG BW IN DMSO 3/WK FOR 4 WK (STUDY DURATION: 61 WK), Tumor Site: Type of Lesion: MAMMARY GLAND: ADENOCARCINOMA) is “active; positive”; the carcinogen call (Species: RAT, Strain/Sex: STRAIN-CD/FEMALE, Route: INTRAPERITONEAL, Dose: 0, 67 UMOL/KG/BW IN 25 UMOL/ML DMSO 3/WK FOR 4 WK (TOTAL DOSE: 0; 119 UMOL) ADMINISTERED TO WEANLING RATS (STUDY DURATIO, Dose: 0, 67 UMOL/KG/BW IN 25 UMOL/ML DMSO 3/WK FOR 4 WK (TOTAL DOSE: 0; 119 UMOL) ADMINISTERED TO WEANLING RATS (STUDY DURATIO, Tumor Site: Type of Lesion: MAMMARY GLAND: ADENOCARCINOMA) is “active; positive”; the carcinogen call (Species: RAT, Strain/Sex: STRAIN-CD/FEMALE, Route: SUBCUTANEOUS, Dose: 0, 75 UMOL (TOTAL DOSE) ADMINISTERED OVER 8 WK BEGINNING WITHIN 24 HR OF BIRTH (STUDY DURATION: 86 WK), Tumor Site: Type of Lesion: MAMMARY GLAND: TUMOR, INTEGUMENTARY SYSTEM: MALIGNANT FIBROUS HISTIOCYTOMA, HEMATOPOIETIC SYSTEM: LEUKEMIA, ZYMBAL GLAND, Tumor Site: Type of Lesion: MAMMARY GLAND: TUMOR, INTEGUMENTARY SYSTEM: MALIGNANT FIBROUS HISTIOCYTOMA, HEMATOPOIETIC SYSTEM: LEUKEMIA, ZYMBAL GLAND) is “active; positive”.
